Experimental findings from patent publication US9206190B2 (priority 2008, dated 2015) are described below.

Data set [1] has as its system rats. The conditions noted are these: rat, in vivo.
For data set [2], the system named is rats. The conditions noted are these: rat, in vivo. The source holds these as a separate data set.

For the compound `CC(C)C[C@H](CN)CC(=O)O` [Pregabalin], the “effect on left and right paw withdrawal latencies compared to vehicle control” value in data set [1] is given as “failed to have a significant effect”. In addition, the sedative clinical symptoms result in data set [2] is on record as “dose-dependant increase in the level of sedative clinical symptoms”.
